Measurements: publication PMC11590026, “Synthesis, enzyme inhibition, and docking studies of new schiff bases of disalicylic acid methylene-based derivatives as dual-target antibacterial agents” (Frontiers in Chemistry, 2024)
Values after ≈ are worked out from the molar mass of the structure shown. Read-outs that look alike come from different tables or passages of the source.

How the values were obtained:
E. coli (ATCC BAA-196) = test: Antibacterial assay against multi-drug resistant strains (MIC/MBC); assay type: cell-based, Escherichia coli; settings: Escherichia coli; for MBC: ATCCBAA196; for MIC: ATCCBAA196, read-out: MIC
E. coli = test: MIC/MBC assay, twofold serial dilution; assay type: cell-based, Escherichia coli; settings: Escherichia coli; for MBC: read-out: MBC; for MIC: read-out: MIC
Protocol: (§1) The results of this in vitro assay test are consistent with the findings of the antimicrobial sensitivity test. […] It has lower antimicrobial activity than ciprofloxacin against all pathogens tested.
(§2) The MBC differs from the MIC. […]
(§3) 4.2.2. Minimum inhibitory concentration assay
(§4) In 96-well microtiter plates and […] of fresh bacterial culture of a single McFarland unit overnight, a double serial dilution of each compound […] in sterile standard saline were prepared to every single source well. Ciprofloxacin antibiotic (5 mg / mL - 1) and normal saline were included as standard reference in each assay. The plates were incubated at 37 0C overnight. As an indicator of bacterial growth, […] of p-iodonitrotetrazolium violet (INT) was added to each well and incubated at 37 0C for 30 […]
(§5) min. MIC values are recorded as the lowest concentration of the extract that completely inhibited bacterial growth that is clear well. The colorless tetrazolidium salt acts as an electron accepter and is reduced to a red colored formazan product by biological activity organisms. Where bacterial growth was inhibited, the solution in the well remained clear after incubation with INT. […]

P. aeruginosa = test: MIC/MBC assay, twofold serial dilution; assay type: cell-based, Pseudomonas aeruginosa; settings: Pseudomonas aeruginosa; for MBC: read-out: MBC; for MIC: read-out: MIC
Protocol: as §1, §2, §3, §4, §5

S. aureus = test: MIC/MBC assay, twofold serial dilution; assay type: cell-based, Staphylococcus aureus; settings: for MBC: read-out: MBC
Protocol: as §1, §2, §3, §4, §5

Gram-positive bacteria = test: MBC assay, Gram-positive bacteria together; assay type: cell-based; settings: Gram-positive bacteria (B. subtilis, S. aureus)
Excerpt: The MBC differs from the MIC.

[1] = system: S. aureus (ATCC 43300) (MRSA); test: Antibacterial assay against multi-drug resistant strains (MIC/MBC); assay type: cell-based, Staphylococcus aureus; settings: Staphylococcus aureus, S. aureus ATCC 43300 (MRSA); for MBC: read-out: MBC; for MIC: read-out: MIC
[2] = system: P. aeruginosa (ATCC BAA-2111); test: as above; assay type: cell-based, Pseudomonas aeruginosa; settings: Pseudomonas aeruginosa; for MBC: ATCCBAA2111; for MIC: ATCCBAA2111, read-out: MIC
A. flavus = test: Antifungal assay (MIC/MFC), twofold serial dilution; settings: for MIC: A. flavus
C. albicans = test: as above; settings: Candida albicans
[3] = Cell viability assay (MTT); assay type: cell-based; settings: human, MCF-10A cells (normal mammary gland epithelial cell line), 4-day incubation
Protocol: The vitality of the investigated compounds was assessed using the MCF-10A cell line, which is a normal human mammary gland epithelial cell line. Following a 4-day incubation period on MCF-10A cells with a concentration of 50 µM for each compound being studied, the viability of the cells was assessed using the MTT test ([Hisham et al., 2022]; [Mahmoud et al., 2022]).
4.2.3. Cell Viability assay
MTT assay was carried out to study the effect of compounds on mammary epithelial cells (MCF-10A). The medium in which cells were propagated contained Dulbecco's modified Eagle's medium (DMEM)/ Ham's F-12 medium (1:1) supplemented with epidermal growth factor (20 ng/mL), hydrocortisone (500 ng/mL), insulin (10 μg/mL), 2 mM glutamine and 10% fetal calf serum. After every 2-3 days, the cells were passaged using trypsin ethylenediamine tetra acetic acid (EDTA). The cells were seeded at a density of 10^4 cells mL-1 in flat-bottomed culture plates containing 96 wells each. After 24 h, medium was removed from the plates and the compounds in (in 0.1% DMSO) were added (in 200 μL medium to yield a final concentration of 0.1% v/v) to the wells of plates. A single compound was designated with four wells followed by incubation of plates for 96h at 37°C. After incubation, medium was removed completely from the plates followed by addition of MTT (0.4 mg/mL in medium) to each well and subsequent incubation of plates for 3h. MTT (along with the medium) was removed and DMSO (150μL) was added to each well of the culture plates, followed by vortexing and subsequent measurement of absorbance (at 540 nm) using microplate reader. The data are shown as percentage inhibition of proliferation in comparison with controls

B. subtilis = test: MIC/MBC assay, twofold serial dilution; assay type: cell-based, Bacillus subtilis; settings: Bacillus subtilis; for MBC: read-out: MBC; for MIC: read-out: MIC
Protocol: as §1, §2, §3, §4, §5

[4] = Staphylococcus aureus, read-out: MIC

Compound | MBC (E. coli (ATCC BAA-196)) [µM] | MIC (E. coli (ATCC BAA-196)) [µM] | MBC (E. coli) [µM] | MIC (E. coli) [µM] | MBC (P. aeruginosa) [µM] | MIC (P. aeruginosa) [µM] | MBC (S. aureus; Staphylococcus aureus) [µM] | MIC (S. aureus; [4]) [µM] | MBC (Gram-positive bacteria) [µM] | MBC [1] [µM] | MIC [1] [µM] | MBC [2] [µM] | MIC [2] [µM] | MIC (A. flavus) [µM] | MFC (A. flavus; Aspergillus flavus) [µM] | MIC (A. flavus; Aspergillus flavus) [µM] | MFC (C. albicans) [µM] | MIC (C. albicans) [µM] | viability at 96 h, 50 µM [3] [%] | MBC (B. subtilis) [µM] | also measured
O=C1Nc2ccc(Br)cc2/C1=N/NC(=O)c1cc(Cc2cc(Cl)c(O)c(C(=O)N/N=C3\C(=O)Nc4ccc(Br)cc43)c2)cc(Cl)c1O [Compound 6c] | 8.2 ± 0.6 (≈ 6.57 µg/mL) | 5.3 ± 0.2 (≈ 4.25 µg/mL) | 0.088 ± 0.006 (≈ 0.0705 µg/mL) | 0.066 ± 0.004 (≈ 0.0529 µg/mL) | 0.085 ± 0.006 (≈ 0.0681 µg/mL) | 0.065 ± 0.005 (≈ 0.0521 µg/mL) | 0.045 ± 0.002 (≈ 0.0361 µg/mL) | 0.029 (≈ 0.0232 µg/mL) | 0.028 to 0.058 (≈ 0.0224 to 0.0465 µg/mL) | 7.1 ± 0.5 (≈ 5.69 µg/mL) | 4.7 ± 0.2 (≈ 3.77 µg/mL) | 9.2 ± 0.6 (≈ 7.37 µg/mL) | 6.85 ± 0.5 (≈ 5.49 µg/mL) | 18.20 ± 1 (≈ 14.6 µg/mL) | 35.9 ± 2 (≈ 28.8 µg/mL) | 14.5 to 19.5 (≈ 11.6 to 15.6 µg/mL) | 44.8 ± 3 (≈ 35.9 µg/mL) | 21.3 ± 1 (≈ 17.1 µg/mL) | 91 | 0.051 ± 0.003 (≈ 0.0409 µg/mL) | MIC (S. aureus): 0.029 ± 0.002 µM (≈ 0.0232 µg/mL); MIC (B. subtilis): 0.033 ± 0.002 µM (≈ 0.0264 µg/mL)
COc1ccc2c(c1)/C(=N/NC(=O)c1cc(Cc3cc(Cl)c(O)c(C(=O)N/N=C4\C(=O)Nc5ccc(OC)cc54)c3)cc(Cl)c1O)C(=O)N2 [Compound 6e] | 9.3 ± 0.6 (≈ 6.54 µg/mL) | 6.25 ± 0.25 (≈ 4.4 µg/mL) | 0.095 ± 0.006 (≈ 0.0668 µg/mL) | 0.069 ± 0.004 (≈ 0.0485 µg/mL) | 0.097 ± 0.006 (≈ 0.0682 µg/mL) | 0.069 ± 0.005 (≈ 0.0485 µg/mL) | 0.054 ± 0.003 (≈ 0.038 µg/mL) | 0.035 ± 0.002 (≈ 0.0246 µg/mL) | 0.028 to 0.058 (≈ 0.0197 to 0.0408 µg/mL) | 7.8 ± 0.5 (≈ 5.49 µg/mL) | 5.9 ± 0.2 (≈ 4.15 µg/mL) | 10.4 ± 0.7 (≈ 7.32 µg/mL) | 7.15 ± 0.5 (≈ 5.03 µg/mL) | 19.50 ± 1 (≈ 13.7 µg/mL) | 40.2 ± 3 (≈ 28.3 µg/mL) | 14.5 to 19.5 (≈ 10.2 to 13.7 µg/mL) | 50.2 ± 3 (≈ 35.3 µg/mL) | 22.9 ± 1 (≈ 16.1 µg/mL) | 92 | 0.058 ± 0.003 (≈ 0.0408 µg/mL) | MIC (B. subtilis): 0.037 ± 0.002 µM (≈ 0.026 µg/mL)
